Target: Neuronal acetylcholine receptor subunit alpha-7 (Homo sapiens, UniProt P36544)
Assay: Partial agonist activity at human alpha7 nAChR expressed in Xenopus laevis oocytes assessed as induction of maximum current response administered for 12 secs followed by washout period for 181 secs by voltage clamp technique

Chain of Neuronal acetylcholine receptor subunit alpha-7 (P36544 whole entry): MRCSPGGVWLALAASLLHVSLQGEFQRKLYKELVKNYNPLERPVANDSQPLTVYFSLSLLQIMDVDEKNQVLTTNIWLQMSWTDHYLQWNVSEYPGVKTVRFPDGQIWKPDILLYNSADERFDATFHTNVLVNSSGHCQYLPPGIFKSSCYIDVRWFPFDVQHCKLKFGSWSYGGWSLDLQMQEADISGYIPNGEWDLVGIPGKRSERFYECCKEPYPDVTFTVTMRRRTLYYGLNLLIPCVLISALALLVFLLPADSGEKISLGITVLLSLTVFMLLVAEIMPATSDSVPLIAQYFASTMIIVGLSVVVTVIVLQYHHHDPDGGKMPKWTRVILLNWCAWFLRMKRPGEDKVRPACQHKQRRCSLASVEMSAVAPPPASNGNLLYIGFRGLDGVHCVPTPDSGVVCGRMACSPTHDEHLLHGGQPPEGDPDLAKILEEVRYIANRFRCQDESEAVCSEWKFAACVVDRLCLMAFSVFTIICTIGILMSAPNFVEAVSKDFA

## CC[N+]1(CC)CCN(c2ccccc2)CC1
  EC50: 221 µM

Source: BindingDB's records for doi:10.1021/acs.jmedchem.7b00875 (University of Florida, 2017)
